Ki data for 13 compounds are collected here from publication PMC6073313, “Comparison of the Anion Inhibition Profiles of the α-CA Isoforms (SpiCA1, SpiCA2 and SpiCA3) from the Scleractinian Coral Stylophora pistillata” (International Journal of Molecular Sciences, 2018).

Where only a bound is given, the exact number is not on record here.

One assay addresses T1, SpiCA3 (Stylophora pistillata, UniProt A0A1B0Y357).
T1 construct: gene CA3
T1 sequence (A0A1B0Y357 1-258): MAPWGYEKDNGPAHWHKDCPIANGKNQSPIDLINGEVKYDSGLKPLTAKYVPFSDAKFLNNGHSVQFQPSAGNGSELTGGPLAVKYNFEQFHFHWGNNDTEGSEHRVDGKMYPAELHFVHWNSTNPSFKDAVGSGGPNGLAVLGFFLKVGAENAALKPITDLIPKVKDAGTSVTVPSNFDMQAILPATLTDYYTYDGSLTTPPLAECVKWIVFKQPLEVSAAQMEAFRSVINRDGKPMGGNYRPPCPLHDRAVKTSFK
Nature of the assay: stopped-flow CO2 hydration, phenol red, Cheng-Prusoff. Format: biochemical.
Settings: not given
Compound `S` [HS^−] had a Ki of 0.34 mM.

With `I` [I^−], the Ki was 0.56 mM.

`Cl` [Cl^−]: the Ki was 0.51 mM.

`O=S(=O)(O)C(F)(F)F` [Triflate] showed a Ki of 0.29 mM.

`N#C[SeH]` [SeCN^−] displayed a Ki of 0.15 mM.

The compound `O=NO` [NO2^−] had a Ki of 0.45 mM.

Regarding `O=C(O)O` [HCO3^−], the Ki was 0.4 mM.

Compound `OB(O)c1ccccc1` [Ph-B(OH)2] registered a Ki greater than 100 mM.

In the case of `[N-]=[N+]=[N-]` [N3^−], the Ki was 0.08 mM.

Staying with this assay, now noted: read-out: KI [mM] ^# / SpiCA3 ^c.
`CCN(CC)C(=S)S` [Et2NCS2^−]: the Ki stood at 0.044 mM.

On to `NS(=O)(=O)O` [H2NSO3H], for which the Ki was greater than 100 mM.

Consider `S=C(S)S` [CS3^2^−], for which the Ki was determined as 0.47 mM.

Take `NS(N)(=O)=O` [H2NSO2NH2]: the Ki stood at 0.0007 mM.
